For data set [1], the system named is multiple myeloma cell line NCI-H929. The data set can be described thus: H929 Cell Viability Assay. In kind it is cell-based, human. Conditions: Homo sapiens, NCI-H929, 48 h, NCI-H929 cells, Celltiter-Glo. A digest of the protocol: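 Plate the myeloma cells in RPMI 1640 with 10% FBS, add serially diluted compound, incubate for 48 hours at 37° C, then add CellTiter-Glo and read luciferase signal.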

Data set [2] is described as follows: Liver Microsome Stability Assay (rat). The note with it: rat liver microsomes, with NADPH, 1.0 uM compound.
Method: (§1) Stability of a compound was assessed in the presence of liver microsomes from various sources—mouse, rat, monkey and human liver microsomes. 1.0 uM compound, 0.4% DMSO in 0.1 M Potassium Phosphate with 1.0 mg/mL liver microsomes, were incubated at 37° C. with or without 1 mM NADPH. The samples were quenched at 0, and 30 minutes.
The nature of data set [3]: Liver Microsome Stability Assay (human). The note with it: human liver microsomes, with NADPH, 1.0 uM compound.
Method: as §1
The subject of data set [4] is multiple myeloma cell line U266B1. The data set is described as follows: U266 Cell Viability Assay. In kind it is cell-based, human. Conditions: Homo sapiens, U-266, 48 h, U266B1 cells, Celltiter-Glo. A digest of the protocol:
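48 h treatment, 37° C./5% CO2, RPMI 1640 + 10% FBS; viability by CellTiter-Glo luminescence.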

Data set [5] relates to PD1-ss+10aa/Gaussia Luciferase. The data set is described as follows: Dox-Induced PD1-ss-Gluc Assay. In kind it is cell-based. Conditions: 24 hr Dox induction, 293FRT/TO cells, read-out: 24 hr Dox Inducible PD1ssGluc 293FRT/TO: Mean IC50. The method in brief: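 Flp-In 293 T-REx, stable line; Tet-regulated PD1-ss+10aa fused to Gaussia luciferase; plated day prior; cpd + doxycycline in DMSO/media; 37 °C, 5% CO2.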

Data set [6] deals with IL-2-FL/Gaussia Luciferase. The data set can be described thus: Dox Induced IL2-FL-Gluc Assay. In kind it is cell-based. The note with it: for IC50: 24 hr Dox induction, 293FRT/TO cells, read-out: 24 hr Dox Inducible IL2FLGluc 293FRT/TO: Mean IC50; for 24 hr Dox Inducible IL2FLGluc 293FRT/TO: IL2/PD1: ratio of IL2FLGluc IC50 to PD1ssGluc IC50. A digest of the protocol: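 Reporter is Gaussia luciferase fused to the 3′ end of full-length IL-2 (aa 1-153), expressed from a doxycycline-inducible T-REx construct in stably selected Flp-In 293 cells. Compounds were co-added with doxycycline and incubated at 37° C, 5% CO2.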

Data set [7] concerns HER3-ss+4aa/Gaussia Luciferase. The data set can be described thus: Dox-Induced Her3-ss-Gluc Assay. It counts as cell-based. The note with it: 24 hr Dox induction, 293FRT/TO cells, read-out: 24 hr Dox Inducible Her3(ss + 4)Gluc 293FRT/TO: Mean IC50. The method in brief:
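Expression of a Gaussia luciferase reporter carrying the HER3 signal sequence plus 4 amino acids is induced by doxycycline in stably transfected Flp-In 293 T-REx cells. Compounds are added with doxycycline at 37° C., 5% CO2. Undefined stereocentres denote stereoisomer mixtures.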

A short description of data set [8]: Liver Microsome Stability Assay (mouse). The note with it: mouse liver microsomes, with NADPH, 1.0 uM compound.
Method: as §1
The nature of data set [9]: Liver Microsome Stability Assay (monkey). The note with it: monkey liver microsomes, with NADPH, 1.0 uM compound. Background: Liver microsomes are vesicles of endoplasmic reticulum, rich in cytochrome P450 enzymes.
Method: as §1
Data set [10] deals with TNFα-FL/Gaussia Luciferase. The data set can be described thus: Dox Induced TNFα-FL-Gluc Assay. It counts as cell-based. Conditions: for IC50: 24 hr Dox induction, 293FRT/TO cells, read-out: 24 hr Dox Inducible TNFaFLGluc 293FRT/TO: Mean IC50; for 24 hr Dox Inducible TNFaFLGluc 293FRT/TO: TNF/PD1: ratio of TNFaFLGluc IC50 to PD1ssGluc IC50. The method in brief: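 Cells are seeded one day ahead, then treated with compound plus doxycycline at 37 °C, 5% CO2. The stable Flp-In 293 T-REx line expresses full-length TNFα (amino acids 1-233) with Gaussia luciferase fused to its 3′ end, inducibly via T-REx.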

Setting [11] is: '<=>' given where both are I.A.

A word on the EC50: it is the concentration needed to bring the measured effect to its halfway point.

Where two headings read alike, the source gives them in different places.

On to `CC(C)c1nc(/C=C/c2csc(NC(=O)c3cccn3Cc3ccnc(F)c3)n2)cn1C` [Compound B67, (E)-1-((2-fluoropyridin-4-yl)methyl)-N-(4-(2-(2-isopropyl-1-methyl-1H-imidazol-4-yl)vinyl)thiazol-2-yl)-1H-pyrrole-2-carboxamide], for which the values for the EC50 in data set [1] and in [4] were 21000 nM and 19700 nM, respectively. For the same molecule, the “Liver Microsome Stability (Multiple Species): Rat - % Remaining after 30 min w/NADPH” value in [2] stood at 1.32%. Moreover, in [3], the “Liver Microsome Stability (Multiple Species): Human - % Remaining after 30 min w/NADPH” value worked out at 0.16%. For the same molecule, the IC50 in data set [5] was 5370 nM; in data set [6], 19100 nM; in data set [7] it was 18500 nM; in [10], greater than 25000 nM. Further, the “24 hr Dox Inducible IL2FLGluc 293FRT/TO: IL2/PD1” value in data set [6] turned out to be 3.6. The “Liver Microsome Stability (Multiple Species): Mouse - % Remaining after 30 min w/NADPH” value in data set [8] was 2.2%. Also, the “Liver Microsome Stability (Multiple Species): Monkey - % Remaining after 30 min w/NADPH” value in data set [9] is given as 0.13%. The “24 hr Dox Inducible TNFaFLGluc 293FRT/TO: TNF/PD1” value in data set [10] was greater than 4.66.
On to `O=C(Nc1nc([C@H]2CCCN2c2cccnc2)cs1)c1cccn1Cc1ccncc1` [Compound E46, (R)-N-(4-(1-(pyridin-3-yl)pyrrolidin-2-yl)thiazol-2-yl)-1-(pyridin-4-ylmethyl)-1H-pyrrole-2-carboxamide], for which the EC50 in data set [1] was 3650 nM; in data set [4], greater than 25000 nM. Further, the “Liver Microsome Stability (Multiple Species): Rat - % Remaining after 30 min w/NADPH” value in data set [2] turned out to be 1.85%. Further, the “Liver Microsome Stability (Multiple Species): Human - % Remaining after 30 min w/NADPH” value in [3] is 7.36%. Moreover, the IC50 in [5] (mean) is 29.1 nM; in data set [6] (mean), 115 nM; in data set [7] (mean), 60.4 nM; in data set [10] (mean), 529 nM. The “24 hr Dox Inducible IL2FLGluc 293FRT/TO: IL2/PD1” value in [6] (setting [11]) stood at 3.9. The “Liver Microsome Stability (Multiple Species): Mouse - % Remaining after 30 min w/NADPH” value in data set [8] was 22.1%. The “Liver Microsome Stability (Multiple Species): Monkey - % Remaining after 30 min w/NADPH” value in data set [9] turned out to be 0.6%. In addition, in data set [10] (setting [11]), the “24 hr Dox Inducible TNFaFLGluc 293FRT/TO: TNF/PD1” value was found to be 18.1.
`NC(=O)Cn1cnc(/C=C/c2csc(NC(=O)c3cccn3Cc3ccnc(F)c3)n2)c1` [Compound B115]: the concentration giving a half-maximal response (EC50) in data set [1] and in data set [4] was greater than 25000 nM each time. Also, in data set [2], the “Liver Microsome Stability (Multiple Species): Rat - % Remaining after 30 min w/NADPH” value is 30%. Moreover, the “Liver Microsome Stability (Multiple Species): Human - % Remaining after 30 min w/NADPH” value in data set [3] was determined as 12.8%. Moreover, the IC50 in [5], in data set [6], in data set [7] and in data set [10] was greater than 25000 nM each time. In addition, in data set [6], the “24 hr Dox Inducible IL2FLGluc 293FRT/TO: IL2/PD1” value is listed as “<=>1.0”. In addition, the “Liver Microsome Stability (Multiple Species): Mouse - % Remaining after 30 min w/NADPH” value in data set [8] amounted to 70.7%. Besides, in data set [9], the “Liver Microsome Stability (Multiple Species): Monkey - % Remaining after 30 min w/NADPH” value was 11.5%. In data set [10], the “24 hr Dox Inducible TNFaFLGluc 293FRT/TO: TNF/PD1” value is recorded as “<=>1.00”.
For `CC(=O)N1CCC(Oc2ccc(N3CCC[C@@H]3c3csc(NC(=O)c4cccn4Cc4ccnc(F)c4)n3)cc2Cl)CC1` [Compound A140, (R)-N-(4-(1-(4-((1-acetylpiperidin-4-yl)oxy)-3-chlorophenyl)pyrrolidin-2-yl)thiazol-2-yl)-1-((2-fluoropyridin-4-yl)methyl)-1H-pyrrole-2-carboxamide], the concentration giving a half-maximal response (EC50) in data set [1] was 418 nM; in data set [4], greater than 25000 nM. Also, in data set [2], the “Liver Microsome Stability (Multiple Species): Rat - % Remaining after 30 min w/NADPH” value turned out to be 12.8%. For the same molecule, in data set [3], the “Liver Microsome Stability (Multiple Species): Human - % Remaining after 30 min w/NADPH” value stood at 14%. In addition, the IC50 in [5] came to 13.9 nM; in data set [6], 33.7 nM; in data set [7] it was 9.88 nM; in [10], 361 nM. Further, in [6], the “24 hr Dox Inducible IL2FLGluc 293FRT/TO: IL2/PD1” value turned out to be 2.4. The “Liver Microsome Stability (Multiple Species): Mouse - % Remaining after 30 min w/NADPH” value in [8] worked out at 16.1%. For the same molecule, the “Liver Microsome Stability (Multiple Species): Monkey - % Remaining after 30 min w/NADPH” value in [9] is 8.54%. Besides, in [10], the “24 hr Dox Inducible TNFaFLGluc 293FRT/TO: TNF/PD1” value worked out at 25.9.
As for `O=C(Nc1nc([C@H]2CCCN(c3ccccn3)C2)cs1)c1cccn1Cc1ccncc1` [Compound E45, (S)-N-(4-(1-(pyridin-2-yl)piperidin-3-yl)thiazol-2-yl)-1-(pyridin-4-ylmethyl)-1H-pyrrole-2-carboxamide], the EC50 was 17300 nM in data set [1] and 14300 nM in data set [4]. The “Liver Microsome Stability (Multiple Species): Rat - % Remaining after 30 min w/NADPH” value in data set [2] came to 1.2%. Besides, the “Liver Microsome Stability (Multiple Species): Human - % Remaining after 30 min w/NADPH” value in [3] turned out to be 0.19%. The IC50 in data set [5] (mean) was determined as 531 nM; in data set [6] (mean) it was 2370 nM; in data set [7] (mean), 1450 nM; in data set [10] (mean), 6030 nM. The “24 hr Dox Inducible IL2FLGluc 293FRT/TO: IL2/PD1” value in data set [6] (setting [11]) turned out to be 4.5. In [8], the “Liver Microsome Stability (Multiple Species): Mouse - % Remaining after 30 min w/NADPH” value was determined as 2.25%. In [9], the “Liver Microsome Stability (Multiple Species): Monkey - % Remaining after 30 min w/NADPH” value is on record as 0.23%. Further, the “24 hr Dox Inducible TNFaFLGluc 293FRT/TO: TNF/PD1” value in data set [10] (setting [11]) amounted to 11.4.
`CC(=O)N1CC(Oc2ccc(N3CCC[C@@H]3c3csc(NC(=O)c4cccn4Cc4ccnc(F)c4)n3)cc2)C1` [Compound A81, (R)-N-(4-(1-(4-((1-acetylazetidin-3-yl)oxy)phenyl)pyrrolidin-2-yl)thiazol-2-yl)-1-((2-fluoropyridin-4-yl)methyl)-1H-pyrrole-2-carboxamide]: the results for the EC50 in [1] and in [4] were 679 nM and greater than 25000 nM, respectively. Further, the “Liver Microsome Stability (Multiple Species): Rat - % Remaining after 30 min w/NADPH” value in data set [2] came out at 68.9%. The “Liver Microsome Stability (Multiple Species): Human - % Remaining after 30 min w/NADPH” value in [3] was found to be 12.8%. For the same molecule, the IC50 turned out to be 14 nM in data set [5], 41.5 nM in [6], 23.7 nM in data set [7] and 143 nM in [10]. In data set [6], the “24 hr Dox Inducible IL2FLGluc 293FRT/TO: IL2/PD1” value is reported as 3. Also, the “Liver Microsome Stability (Multiple Species): Mouse - % Remaining after 30 min w/NADPH” value in data set [8] came out at 39.5%. In addition, the “Liver Microsome Stability (Multiple Species): Monkey - % Remaining after 30 min w/NADPH” value in data set [9] is 8.77%. Moreover, the “24 hr Dox Inducible TNFaFLGluc 293FRT/TO: TNF/PD1” value in data set [10] worked out at 10.2.
`CC(=O)N1CCC[C@H](Oc2ccc(N3CCC[C@@H]3c3csc(NC(=O)c4cccn4Cc4ccnc(F)c4)n3)cc2)C1` [Compound A84, N-(4-((R)-1-(4-(((S)-1-acetylpiperidin-3-yl)oxy)phenyl)pyrrolidin-2-yl)thiazol-2-yl)-1-((2-fluoropyridin-4-yl)methyl)-1H-pyrrole-2-carboxamide]: the figures for the EC50 in [1] and in data set [4] were 1050 nM and greater than 25000 nM, respectively. For the same molecule, the “Liver Microsome Stability (Multiple Species): Rat - % Remaining after 30 min w/NADPH” value in data set [2] was found to be 2.51%. Moreover, in [3], the “Liver Microsome Stability (Multiple Species): Human - % Remaining after 30 min w/NADPH” value is 0.5%. Also, the IC50 was determined as 40.7 nM in data set [5], 87 nM in [6], 62.6 nM in data set [7] and 310 nM in data set [10]. In addition, the “24 hr Dox Inducible IL2FLGluc 293FRT/TO: IL2/PD1” value in [6] is 2.1. Further, the “Liver Microsome Stability (Multiple Species): Mouse - % Remaining after 30 min w/NADPH” value in data set [8] was 1%. Further, the “Liver Microsome Stability (Multiple Species): Monkey - % Remaining after 30 min w/NADPH” value in [9] came to 0.73%. Further, the “24 hr Dox Inducible TNFaFLGluc 293FRT/TO: TNF/PD1” value in data set [10] is 7.61.

For the origin of these results see US20230286973A1, “PROTEIN SECRETION INHIBITORS” (KEZAR LIFE SCIENCES, priority 2020, published 2023).
